Columns and labels:
Format in all cases: in vivo
soybean = assay: Phytotoxicity of adjuvant to soybean; conditions: 7 days after spray application
Protocol: (§1) The plants were sprayed with water at a rate of approximately 500 litres per hectare, the water containing 0.1% v/v or 0.2% v/v adjuvant. The plants were assessed for phytotoxicity 7 days after spray application. Each experiment was replicated twice and the results averaged. In the control experiment the plants were sprayed with water and no phytotoxicity was observed.

French bean = assay: Phytotoxicity of adjuvant to French bean; conditions: 7 days after spray application
Protocol: as §1

Chinese cabbage = assay: Phytotoxicity of adjuvant to Chinese cabbage; conditions: 7 days after spray application
Protocol: as §1

[1] = test system: digitaria sanguinalis (DIGSA); assay: Adjuvant with herbicide mesotrione on DIGSA
[2] = test system: brachiaria decumbens (BRADE), digitaria sanguinalis (DIGSA), polygonum convolvulus (POLCO), amaranthus retroflexus (AMARE); assay: Adjuvant with herbicide mesotrione, mean across four weed species (Example 28); conditions: mesotrione 45 or 90 g/ha; Sample 28 0.2%, Tween 20 0.5%; 7, 14 and 21 days
Protocol: (§2) In this example Sample 13 from Table 1 was compared to the oil adjuvant blend Turbocharge™. The herbicide fomesafen was applied to the weed species xanthium strumarium (XANST), setaria viridis (SETVI), abutilon theophrasti (ABUTH), and chenopodium album (CHEAL) at rates of 60 or 120 grams per hectare, using a laboratory track sprayer. Each experiment was replicated four times and the percentage damage to the weeds was assessed visually at time periods of 7, 14 and 21 days after application. Each adjuvant was applied at a rate of 0.5% of the volume of the spray water. Four effects were evaluated: pesticide rate (2 levels), adjuvant type (two levels), weed species (four levels) and days after application (three levels). […] The effect of each adjuvant was pulled out from the model and the least significant differences evaluated using a Student's t method. […]
In this example the rate response of a non-ethoxylated butylene oxide adjuvant was measured at an adjuvant rate of 0.2% by volume in order to display the excellent performance of this adjuvant compared to the commercial adjuvant' Tween 20, which was used at a rate of 0.5% by volume. […] In each case the experiments were replicated three times and the percentage damage to the weeds was assessed visually at time periods of 7, 14 and 21 days after application. […]

[3] = test system: brachiaria platyphyla (BRAPL), digitaria sanguinalis (DIGSA), polygonum convolvulus (POLCO); assay: Adjuvant with herbicide mesotrione, mean across three weed species (Example 20); conditions: mesotrione 30, 60 or 90 g/ha; Sample 13 0.2%, Tween 20 0.5%; 14 and 21 days
Protocol: as §2, with “levels). A standard simple linear model was constructed to judge the significance of these effects.” for “levels).”
In this example the rate response of the butylene oxide adjuvant 13 of Table 1 was measured to display the excellent performance of this adjuvant compared to the commercial adjuvant Tween™20, used at a rate of 0.5% by volume. […] In each case the experiments were replicated four times and the percentage damage to the weeds was assessed visually at time periods of 14 and 21 days after application.

[4] = test system: brachiaria platyphyla (BRAPL), digitaria sanguinalis (DIGSA), polygonum convolvulus (POLCO), amaranthus tuberculatus (AMATU); assay: Adjuvant with herbicide mesotrione, track sprayer, mean across four weed species
[5] = test system: polygonum convolvulus (POLCO); assay: Adjuvant with herbicide mesotrione on POLCO
[6] = test system: amaranthus tuberculatus (AMATU); assay: Adjuvant with herbicide mesotrione on AMATU
[7] = test system: brachiaria platyphyla (BRAPL); assay: Adjuvant with herbicide mesotrione on BRAPL
[8] = mesotrione 30, 60 or 90 g/ha, Sample 13 0.2%, Tween 20 0.5%, 14 and 21 days
[9] = mesotrione 45 and 90 g/ha, adjuvants 0.5% of spray water, 7, 14 and 21 days after application
[10] = mesotrione 45 or 90 g/ha, Sample 27 0.2%, Tween 20 0.5%, 7, 14 and 21 days

CCCCCCCC/C=C\CCCCCCCCOCCOCCOCCOCCOCCOCCOCCOCCOCCOCCO [Genapol O100]
Soybean % phytotoxicity (soybean; 0.1% v/v adjuvant in water): 3.5% | Soybean % phytotoxicity (soybean; 0.2% v/v adjuvant in water): 15% | French bean % phytotoxicity (French bean; 0.1% v/v adjuvant in water): 5% | French bean % phytotoxicity (French bean; 0.2% v/v adjuvant in water): 10% | Chinese cabbage % phytotoxicity (Chinese cabbage; 0.1% v/v adjuvant in water): 2% | Chinese cabbage % phytotoxicity (Chinese cabbage; 0.2% v/v adjuvant in water): 10%

Tween 20
mean efficacy (percentage damage to the weeds), DIGSA [1, 8]: 45.55; A % | mean efficacy (percentage damage to the weeds), DIGSA [1, 9]: 48.33; B % | mean efficacy (percentage damage to the weeds), DIGSA [1, 10]: 41.67; A % | Mean kill (%) [2]: 65.8% | mean efficacy (percentage damage to the weeds), All weeds [3]: 26.11; B % | mean efficacy (percentage damage to the weeds), All weeds [4, 9]: 63.861; B % | mean efficacy (percentage damage to the weeds), All weeds [4, 10]: 54.54; A % | mean efficacy (percentage damage to the weeds), POLCO [5, 8]: 32.77; B % | mean efficacy (percentage damage to the weeds), POLCO [5, 9]: 95.44; A % | mean efficacy (percentage damage to the weeds), POLCO [5, 10]: 73.61; A % | mean efficacy (percentage damage to the weeds), AMATU [6, 9]: 66.94; AB % | mean efficacy (percentage damage to the weeds), AMATU [6, 10]: 69.86; A % | mean efficacy (percentage damage to the weeds), BRAPL [7, 8]: 26.11; B % | mean efficacy (percentage damage to the weeds), BRAPL [7, 9]: 44.72; B % | mean efficacy (percentage damage to the weeds), BRAPL [7, 10]: 33.06; B %
